Assay results taken from US8445440B2, “Dimeric IAP inhibitors” (Novartis AG, priority 2010, dated 2013).

Tests used:
XIAP-BIR3 = XIAP-BIR3 (Homo sapiens, UniProt P98170); assay: Biacore SPR solution competition binding assay vs smac7 mer peptide, XIAP-BIR3; conditions: citrate salt form tested; 100 nM XIAP-BIR3; 25° C.; read-out: XIAP-BIR3 Binding Biacore (Competitive) EC50
Excerpt: (§1) The compounds described herein above were profiled using a cellular assay (using SKOV3 or Panc3.27 tumor cells) and a binding assay to determine the competition between the compounds of the present invention and smac7 mer peptide for XIAP-BIR3 and cIAP1-BIR3 binding groove occupancy.
(§2) The present method includes utility of a Surface plasmon resonance (SPR)-based biosensor (Biacore™ GE Healthcare, Uppsala, Sweden) to examine competition between the compounds of the present invention and smac7 mer peptide for XIAP-BIR3 and cIAP1-BIR3 binding groove occupancy.
(§3) Biacore™ utilizes the phenomenon of surface plasmon resonance (SPR) to detect and measure binding interactions. In a typical Biacore experiment, one of the interacting molecules is immobilized on a flexible dextran matrix while the interacting partner is flowed over the derivatized surface. A binding interaction results in an increase in mass on the sensor surface and a corresponding direct change in the refractive index of the medium in the vicinity of the sensor surface. Changes in refractive index or signal are recorded in resonance units (R.U.) Signal changes due to association and dissociation of complexes are monitored in a non-invasive manner, continuously and in real-time, the results of which are reported in the form of a sensorgram.
(§4) Biacore™ T100 (GE Healthcare, Uppsala, Sweden) was used to conduct all experiments reported herein. Sensor surface preparation and interaction analyses were performed at 25° C. Buffer and Biacore reagents were purchased from GE Healthcare. Running buffer containing 10 mM Hepes, pH7.4, 150 mM sodium chloride, 1.25 mM Dithiothreitol, 2% Dimethyl sulfoxide and 0.05% polysorbate 20 was utilized throughout all experiments.
(§5) Biotinylated smac7 mer peptide was diluted to 10 nM in running buffer and captured onto a sensor surface pre-derivatized with streptavidin (sensor chip SA) towards peptide surface densities in the range 40-100 R.U. Peptide captured surfaces were blocked with 500 μM PEO2-Biotin (Thermo Scientific).
(§6) Interaction analyses were performed by first equilibrating each compound within a six point seven fold compound dilution series in the range 1 μM to 0.06 nM with either 100 nM XIAP-BIR3 or 6 nM cIAP1-BIR3 for at least one hour during instrument start-up procedures. Protein compound mixtures were then injected over reference and smac7 mer peptide surfaces in series for 60 seconds at a flow-rate of 64 μL/minutes. Surface regeneration was performed at the end of each analysis cycle by a 30 second injection of 10 mM Glycine, pH 2.5, 1M Sodium Chloride, 0.05% polysorbate 20. Additionally, control compound samples and control XIAP-BIR3 or cIAP1-BIR3 samples were prepared and run at regular intervals to monitor surface and assay performance.
(§7) Data analyses were carried out using Biacore™ T100 evaluation software v2.0 to validate assay quality. Binding level report points were plotted versus logarithmic compound concentration values and analyzed in Graphpad prism 5 via non-linear regression using a one-site competition model. EC50 values were generated and used as a measure of inhibitor potency.

Panc3.27 tumor cells = assay: Cellular assay, Panc3.27 tumor cell proliferation (Cell Titer Glo); type: cell-based; conditions: citrate salt form tested, Panc3.27 cells, 72 hour growth, read-out: PANC proliferation IC50
Procedure: as §1
(§8) On day one adherent SKOV3 and Panc3.27 cells are plated into two 96-well, clear, flat bottom plates. All wells in row A contain 90 uL of media. All wells in rows B-G contain a total volume of 90 uL per well and 2000 cells per well for SKOV3 and 4000 cells per well for Panc3.27 cell lines. Plates are then incubated overnight for 18 hours at 37° C., 5% CO2.
(§9) On day two cells are treated with the compounds of formula M-L-M′. Treatments are done in triplicate. The compounds are first serially diluted in DMSO and then added to media giving a final concentration of 0.2% DMSO when added to cells. Cells are treated with 10 uL of serially diluted compounds of formula M-L-M′ at a final concentration of 1000 nM, 200 nM, 40 nM, 8 nM, 1.6 nM, 0.32 nM, 0.06 nM, 0.013 nM, 0.0026 nM, and one untreated well. Plate two is used as a time zero plate.
(§10) To measure cell viability 50 uL of Cell Titer Glo (CTG) solution is added to row A, media only and B, cells and media. CTG is purchased from Promega Corporation catalog number G7573. The solution is prepared according to manufacturer's instructions. CTG measures the amount of ATP released from viable cells that is proportional to the number of cells in each well. After incubating for ten minutes with CTG plates are measured on a luminescent reader at 700 nm wavelength. Read time is approximately one second per well for a 96-well plate.
(§11) On day five 50 uL of CTG is added to plate one, rows A-G, incubated for 10 minutes at room temperature and read on a luminescent reader. Raw data is adjusted to account for the time zero plate as well as background noise. Triplicate values are averaged and percent control growth is calculated. Percent control growth is calculated using the following logical test: If well read data point (a) is greater than time zero data point (t=0), then 100*[(a)−(t=0)]/[(72 hour total growth)−(t=0)], OR 100*[(a)−(t=0)]/[(t=0)]. Data is represented by line graph with the concentration of compound on the x axis and percent control growth on the y axis.

cIAP1-BIR3 = cIAP1-BIR3 (Homo sapiens, UniProt Q13490); assay: Biacore SPR solution competition binding assay vs smac7 mer peptide, cIAP1-BIR3; conditions: citrate salt form tested; 6 nM cIAP1-BIR3; 25° C.; read-out: CIAP-BIR3 Binding Biacore (Competitive) EC50
cIAP1-BIR3, sequence (Q13490 260-352 limits assumed): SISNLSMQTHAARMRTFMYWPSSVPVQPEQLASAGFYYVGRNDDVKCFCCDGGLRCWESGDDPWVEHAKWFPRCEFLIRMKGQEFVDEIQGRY
Excerpt: as §1, §2, §3, §4, §5, §6, §7

SKOV3 tumor cells = assay: Cellular assay, SKOV3 tumor cell proliferation (Cell Titer Glo); type: cell-based; conditions: Homo sapiens, SK-OV-3, citrate salt form tested, 72 hour growth
Procedure: as §1, §8, §9, §10, §11

XIAP-BIR3, sequence (P98170 241-356 limits assumed): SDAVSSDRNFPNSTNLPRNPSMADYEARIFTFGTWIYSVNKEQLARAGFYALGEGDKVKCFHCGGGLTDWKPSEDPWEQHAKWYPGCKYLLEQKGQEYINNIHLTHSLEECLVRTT

SMILES	EC50 (XIAP-BIR3) [nM]	IC50 (Panc3.27 tumor cells) [nM]	EC50 (cIAP1-BIR3) [nM]	IC50 (SKOV3 tumor cells) [nM]
CN[C@@H](C)C(=O)N[C@@H](CCCCNS(=O)(=O)c1ccc(-c2ccc(S(=O)(=O)NCCCC[C@H](NC(=O)[C@H](C)NC)C(=O)N3CCC[C@H]3c3cncc(C(=O)c4ccc(F)cc4)c3)cc2)cc1)C(=O)N1CCC[C@H]1c1cncc(C(=O)c2ccc(F)cc2)c1 [Example 1D, (S)-N-((S)-1-((S)-2-(5-(4-fluorobenzoyl)pyridin-3-yl)pyrrolidin-1-yl)-6-(4′-(N-((S)-6-((S)-2-(5-(4-fluorobenzoyl)pyridin-3-yl)pyrrolidin-1-yl)-5-((S)-2-(methylamino)propanamido)-6-oxohexyl)sulfamoyl)biphenyl-4-ylsulfonamido)-1-oxohexan-2-yl)-2-(methylamino)propanamide]	88.5 to 129	12.3 to 119	0.31 to 0.34	37.4 to 84.2
O=C(NCCCC[C@H](NC(=O)[C@@H]1CCN1)C(=O)N1CCC[C@H]1c1cncc(C(=O)c2ccc(F)cc2)c1)c1ccc(-c2ccc(C(=O)NCCCC[C@H](NC(=O)[C@@H]3CCN3)C(=O)N3CCC[C@H]3c3cncc(C(=O)c4ccc(F)cc4)c3)cc2)cc1 [Example 1K, Biphenyl-4,4′-dicarboxylic acid bis-[((S)-5-[((S)-azetidine-2-carbonyl)-amino]-6-{(S)-2-[5-(4-fluoro-benzoyl)-pyridin-3-yl]-pyrrolidin-1-yl}-6-oxo-hexyl)-amide]]	636 to 704	> 10000	18.4 to 19.4	9420 to 9460
CN[C@@H](C)C(=O)N[C@@H](Cc1ccc(NC(=O)CCCCCCCCC(=O)Nc2ccc(C[C@H](NC(=O)[C@H](C)NC)C(=O)N3CCC[C@H]3c3cncc(C(=O)c4ccc(F)cc4)c3)cc2)cc1)C(=O)N1CCC[C@H]1c1cncc(C(=O)c2ccc(F)cc2)c1 [Example 2B, Decanedioic acid bis-({4-[(S)-3-{(S)-2-[5-(4-fluoro-benzoyl)-pyridinyl-3-yl]-pyrrolidin-1-yl}-2-((S)-2-methylamino-propionylamino)-3-oxo-propyl]-phenyl}-amide)]	131 to 194	11.7 to 25.9	0.37 to 0.41	7.39 to 15.4
CN[C@@H](C)C(=O)N[C@@H](Cc1ccc(NC(=O)CCCCCC(=O)Nc2ccc(C[C@H](NC(=O)[C@H](C)NC)C(=O)N3CCC[C@H]3c3cncc(C(=O)c4ccc(F)cc4)c3)cc2)cc1)C(=O)N1CCC[C@H]1c1cncc(C(=O)c2ccc(F)cc2)c1 [Example 2A, Heptanedioic acid bis-({4-[(S)-3-{(S)-2-[5-(4-fluoro-benzoyl)-pyridin-3-yl]-pyrrolidin-1-yl}-2-((S)-2-methylamino-propionylamino)-3-oxo-propyl]-phenyl}-amide)]	146 to 154	–	0.73 to 0.74	23.5 to 25.8
CN[C@@H](C)C(=O)N[C@@H](Cc1ccc(NC(=O)CCCCC(=O)Nc2ccc(C[C@H](NC(=O)[C@H](C)NC)C(=O)N3CCC[C@H]3c3cncc(C(=O)c4ccc(F)cc4)c3)cc2)cc1)C(=O)N1CCC[C@H]1c1cncc(C(=O)c2ccc(F)cc2)c1 [Example 2C, Hexanedioic acid bis-({4-[(S)-3-{(S)-2-[5-(4-fluoro-benzoyl)-pyridin-3-yl]-pyrrolidin-1-yl}-2-((S)-2-methylamino-propionylamino)-3-oxo-propyl]-phenyl}-amide)]	125 to 138	144 to 391	0.58 to 0.6	59.7 to 317
CN[C@@H](C)C(=O)N[C@@H](CCCCNC(=O)c1cccc(C(=O)NCCCC[C@H](NC(=O)[C@H](C)NC)C(=O)N2CCC[C@H]2c2cncc(C(=O)c3ccc(F)cc3)c2)c1)C(=O)N1CCC[C@H]1c1cncc(C(=O)c2ccc(F)cc2)c1 [Example 1E, N,N′-Bis-[(S)-6-{(S)-2-[5-(4-fluoro-benzoyl)-pyridin-3-yl]-pyrrolidin-1-y}-5-((S)-2-methylamino-propionylamino)-6-oxo-hexyl]-isophthalamide]	139 to 158	26.8 to 185	0.47 to 0.52	26.7 to 79.4
CN[C@@H](C)C(=O)N[C@@H](CCCCNC(=O)CCCCCCCCC(=O)NCCCC[C@H](NC(=O)[C@H](C)NC)C(=O)N1CCC[C@H]1c1cncc(C(=O)c2ccc(F)cc2)c1)C(=O)N1CCC[C@H]1c1cncc(C(=O)c2ccc(F)cc2)c1 [Example 1G, Decanedioic acid bis-{[(S)-6-{(S)-2-[5-(4-fluoro-benozyl)-pyridin-3-yl]-pyrrolidin-1-yl}-5-((S)-2-methylamino-propionylamino)-6-oxo-hexyl]-amide}]	97.2 to 108	5.22 to 27.9	0.71	9.64 to 16.4
CN[C@@H](C)C(=O)N[C@@H](Cc1ccc(NC(=O)CCCC(=O)Nc2ccc(C[C@H](NC(=O)[C@H](C)NC)C(=O)N3CCC[C@H]3c3cncc(C(=O)c4ccc(F)cc4)c3)cc2)cc1)C(=O)N1CCC[C@H]1c1cncc(C(=O)c2ccc(F)cc2)c1 [Example 2F, Pentanedioic acid bis-({4-[(S)-3-{(S)-2-[5-(4-fluoro-benzoyl)-pyridin-3-yl]-pyrrolidin-1-yl}-2-((S)-2-methylamino-propionylamino)-3-oxo-propyl]-phenyl}-amide)]	123 to 126	88.3 to 393	0.7	≥ 967
CN[C@@H](C)C(=O)N[C@@H](CCCCNS(=O)(=O)c1ccc2ccc(S(=O)(=O)NCCCC[C@H](NC(=O)[C@H](C)NC)C(=O)N3CCC[C@H]3c3cncc(C(=O)c4ccc(F)cc4)c3)cc2c1)C(=O)N1CCC[C@H]1c1cncc(C(=O)c2ccc(F)cc2)c1 [Example 1H, (S)-N-((S)-1-((S)-2-(5-(4-fluorobenzoyl)pyridin-3-yl)pyrrolidin-1-yl)-6-(7-(N-((S)-6-((S)-2-(5-(4-fluorobenzoyl)pyridin-3-yl)pyrrolidin-1-yl)-5-((S)-2-(methylamino)propanamido)-6-oxohexyl)sulfamoyl)naphthalene-2-sulfonamido)-1-oxohexan-2-yl)-2-(methylamino)propanamide]	46.3 to 53.5	13.3 to 140	0.88	80.8 to 86.4
CN[C@@H](C)C(=O)N[C@@H](Cc1ccc(NC(=O)CCCCCCCC(=O)Nc2ccc(C[C@H](NC(=O)[C@H](C)NC)C(=O)N3CCC[C@H]3c3cncc(C(=O)c4ccc(F)cc4)c3)cc2)cc1)C(=O)N1CCC[C@H]1c1cncc(C(=O)c2ccc(F)cc2)c1 [Example 2E, Nonanedioic acid bis-({4-[(S)-3-{(S)-2-[5-(4-fluoro-benzoyl)-pyridin-3-yl]-pyrrolidin-1-yl}-2-((S)-2-methylamino-propionylamino)-3-oxo-propyl]-phenyl}-amide)]	99.4 to 104	37.6 to 95.7	0.73 to 0.81	17.1 to 23.5
